We go through two compounds from patent US20190209472A1, “FORMULATIONS FOR DERMAL DELIVERY OF POLYMER CONJUGATES OF INDOLOCARBAZOLE COMPOUNDS WITH REDUCED EXPOSURE” (Sienna Biopharmaceuticals, Inc., priority 2017, published 2019).

The nature of data set [1]: Validation of HPLC methods (SNA-120 assay and related substances, benzyl alcohol). The conditions noted are these: benzyl alcohol in ointment sample solutions stored at ambient conditions. From the text: An HPLC method was developed for the detection of assay and related substances of SNA-120 drug product and placebo. The following method validation parameters were challenged: specificity; linearity; accuracy; precision (system and repeatability); range; stability of test solutions; limit of detection and quantitation; system suitability.
An HPLC method was developed for the detection of Benzyl Alcohol in SNA-120 drug product and placebo. The following method validation parameters were challenged: specificity; linearity; accuracy; precision (system and repeatability); range; stability of test solutions; system suitability.

Data set [2] can be described thus: Phase 1b maximal use study: plasma pharmacokinetics of SNA-120. Type of data set: in vivo, human. Particulars: any post-baseline timepoint; no detectable levels. Here is the method:
This is a multicenter, open-label, Phase 1b study designed to evaluate the PK with maximal use of 0.5% w/w SNA-120 ointment (see Table 1), as measured by circulating plasma levels of SNA-120 in men and women aged ≥18 years who have at least moderate (e.g., moderate to severe) pruritus associated with at least moderate (e.g., moderate to severe) psoriasis vulgaris (PV) covering at least 20% body surface area (BSA). SNA-120 was evaluated as a topical, non-steroidal ointment to treat itch (pruritus) associated with psoriasis. SNA-120 was designed to achieve high local drug concentration in the target tissue while minimizing systemic exposure for patients. SNA-120 directly targets the peripheral itch pathway in the psoriatic plaque.
Approximately 30 eligible subjects will receive 0.5% w/w SNA-120 ointment (2 mg/cm^2) proportional to approximately 35 mg active drug at each application for a subject with at least 20% BSA affected, administered twice daily over 4 weeks to the indicated areas in the Treatment Area. […]
Pharmacokinetics—Blood: Serial blood draws for PK analysis will be obtained approximately the same time of day for Study Days 1 and 29. […] On Days 1 and 29, blood draws will be collected after each nominal ECG extraction time point; the actual times of collection will be recorded in the eCRF. […]

Take `OCc1ccccc1` [benzyl alcohol]: in data set [1], the “Stability of test solutions: samples stable for up to” value is “ambient conditions. Samples are stable for up to 2 days”. On to `C[C@]12O[C@H](C[C@]1(O)C(=O)O)n1c3ccccc3c3c4c(c5c6ccccc6n2c5c31)CNC4=O` [Lot K252b], for which the “Plasma levels of K252b” value in data set [2] is given as less than 0.250 ng/mL.
